Like-named read-outs stand apart in the source and are kept apart here.
Experiments:
RARα-ERcassette = test: Transactivation, chimerical receptor RARα-ERcassette (HeLa); assay type: cell-based; conditions: TTNPB 10^-8 M = 100
Excerpt: (§1) The HeLa cells are co-transfected by a plasmid which codes for a retinoic receptor in which the C domain of bonding to the DNA is substituted by that of the receptor to RE oestrogens, and a plasmid which places the expression of the luciferase under the control of an ERE (Element of Response to Oestrogens). The expressed chimerical receptors are designated as RARα-ERcassette, RARβ-ERcassette, RARγ-ERcassette and RXRα-ERcassette. The A, B, D, E and F regions of the natural receptor are preserved as well as the transcriptional co-operation between the activation domains AF-1 and AF-2. These transitory transfection experiments follow the method of co-precipitation to calcium phosphate. The HeLa cells are co-transfected by […] of plasmid coding for the chimerical receptor, […] of reporter plasmid and […] of expression vector CMV-β-galactosidase used as an internal control of transfection. 24 hours after the transfection, the cells are incubated for 16 hours with the different effectors.
(§2) In this type of chimerical receptor, the C domain of bonding to the DNA of RAR is substituted by that of the receptor to the RE oestrogens. The protein obtained is close to the natural RAR receptor and preserves the transcriptional properties of the AF-1 and AF-2 domains. It modulates the transcription by means of an ERE. This RAR-ERcassette model allows one to observe a transcriptional response to a more physiological ligand.

[1] = test system: AP-1, MTLN lineage (MCF-7); test: Anti-AP-1 effect, MTLN lineage activated by TPA; assay type: cell-based, human
Method in brief: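 Percent inhibition of AP-1-driven luciferase after basal activity deduction, expressed as a range across repeat experiments. Cells: MTLN, an MCF-7 line stably transfected with p(TRE)3-tk-Luc and stimulated with 10^-7 M TPA; tests in duplicate.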

RARγ-ERcassette = test: Transactivation, chimerical receptor RARγ-ERcassette (HeLa); assay type: cell-based; conditions: TTNPB 10^-8 M = 100
Excerpt: as §1, §2

RARβ-ERcassette = test: Transactivation, chimerical receptor RARβ-ERcassette (HeLa); assay type: cell-based; conditions: TTNPB 10^-8 M = 100
Method in brief: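 Chimeric RAR-ERcassette receptors (AF-1/AF-2 retained, ER DNA-binding domain) drive ERE-controlled luciferase in HeLa cells, with β-galactosidase normalising transfection. Cells, transfected by calcium phosphate co-precipitation, received test effectors for 16 h starting 24 h after transfection.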

[2] = test system: RAR-ERcassettes (RARα, RARβ, RARγ); test: Chimerical receptors RAR-ERcassettes, overall profile; assay type: cell-based
Excerpt: as §1, §2

T-47D cells = test: Effect on oestrogen-induced proliferation of T-47D cells; assay type: cell-based, human
[3] = test system: response element RARE of RARβ gene, endogenic retinoic receptors, HRLN lineage; test: HRLN transactivation (RARE-luciferase, stably transfected HeLa); assay type: cell-based; conditions: for Emax / EC50: Homo sapiens, HeLa; for Emax: read-out: HRLN transactivation, E max; for EC50: concentrations from 1 nM to 1 μM
Method: MCF-7 cells and HeLa are cultivated in DMFM with phenol red to which 5% foetal calf serum is added. The T47-D cells are cultivated in RPMI to which 10% foetal calf serum is added. The experimental tests are carried out in DMEM without phenol red to which foetal calf serum treated with dextran carbon is added at 3%. […] The experiments using the different retinoids are carried out sheltered from the light so as to avoid any isomerisation.
Certain properties of the retinoids have been determined using more developed cellular models. These models consist of cellular lineages transfected in a stable fashion by recombinant plasmids which place the expression of the gene of the luciferase under the control of different nuclear response elements. […] The tests carried out in duplicate are described below for each of these models.
The cellular lineages HRLN and HRL+N allow one to study the activation of an RARE by endogenic receptors using ligands at physiological concentrations. These lineages derive from HeLa cells transfected in a stable fashion by a reporter gene which places the expression of the gene of the luciferase under the control of a nuclear response element RARE (RARE3 -tk-Luc). The HeLa cells express all the known receptors of the retinoic acid (RARα,β,γ and RXRα,β,γ) with a predominance of RARα and RXRα. The response element RARE used for the HRLN cells corresponds to the sequence of the natural gene of the RARβ receptor (GGTTCAnnnnnAGTTCA). The HRL+N cells comprise the sequence GAGTGAnnnnnCGGTGA.
This lineage comprises the response element RARE of the natural gene of the RARβ receptor which controls the expression of the gene of the luciferase.

[4] = test system: A549 human pulmonary cancer cells; test: MTT test, proliferation of A549; assay type: cell-based; conditions: for activity at 0.01 µM / activity at 1 µM / activity at 100 µM: Homo sapiens, read-out: level of proliferation; for effect on cellular increase, A549 (in words): MTT test
Gal4-RARβ = test: Transactivation, chimerical receptor Gal4-RARβ (transitory transfection of HeLa); assay type: cell-based; conditions: 10^-6 M; 100% = TTNPB 10^-8 M
Gal4-RARα = test: Transactivation, chimerical receptor Gal4-RARα (transitory transfection of HeLa); assay type: cell-based; conditions: 10^-6 M; 100% = TTNPB 10^-8 M
[5] = Homo sapiens, MCF7, read-out: anti-AP-1 effect, inhibition
[6] = A549, 10^-4 M, 72 h, control = 100%
[7] = A549, 10^-6 M, 72 h, control = 100%
[8] = A549, 10^-8 M, 72 h, control = 100%

EC50 [3] [nM] | Structure (SMILES) | RAR-ERcassette RARα transactivation (RARα-ERcassette; 10^-6 M) [%] | RAR-ERcassette RARα transactivation (RARα-ERcassette; 10^-7 M) [%] | RAR-ERcassette RARα transactivation (RARα-ERcassette; 10^-8 M) [%] | inhibition at 0.01 µM [1, 5] [%] | RAR-ERcassette RARγ transactivation (RARγ-ERcassette; 10^-6 M) [%] | RAR-ERcassette RARγ transactivation (RARγ-ERcassette; 10^-7 M) [%] | RAR-ERcassette RARγ transactivation (RARγ-ERcassette; 10^-8 M) [%] | RAR-ERcassette RARγ transactivation (RARγ-ERcassette; 10^-9 M) [%] | RAR-ERcassette RARβ transactivation (RARβ-ERcassette; 10^-6 M) [%] | RAR-ERcassette RARβ transactivation (RARβ-ERcassette; 10^-7 M) [%] | RAR-ERcassette RARβ transactivation (RARβ-ERcassette; 10^-8 M) [%] | RAR-ERcassette profile (in words) [2] | HRLN transactivation (in words) [3] | Emax [3] [%] | activity at 100 µM [4, 6] [%] | activity at 1 µM [4, 7] [%] | activity at 0.01 µM [4, 8] [%] | effect on cellular increase, A549 (in words) [4] | effect on oestrogen-induced growth, T-47D (in words) (T-47D cells; estradiol 10^-9 M) | further results
 | CC(C=C/C=C(C)\C=C\C1=C(C)CCCC1(C)C)=CC(=O)O [CB13407, 9-cis retinoic acid, reference compound] | 348 | 187 | 60 | 30 to 37 | 157 | 108 | 56 | 11 | 369 | 212 | 94 | induce an over-expression of luciferase in comparison to the induction brought about by a synthetic compound (TTNPB) | induce a dose-dependent activation |  |  |  |  |  |  | RAR-ERcassette RARα transactivation (RARα-ERcassette; 10^-9 M): 7%; RAR-ERcassette RARβ transactivation (RARβ-ERcassette; 10^-9 M): 16%; IC50 (T-47D cells; Homo sapiens, T47D, 168 h, read-out: anti-proliferation effect, T-47D IC50): 25.1 ± 1.4 nM; activity at 0.01 µM ([4]; A549, 72 h): 104%; activity at 1 µM ([4]; A549, 72 h): 102%; activity at 100 µM ([4]; A549, 72 h): 38%
 | CC1(C)CCC(C)(C)c2cc(/C=C(\c3ccc(C(=O)O)cc3)C(F)(F)F)ccc21 [CB36493, (E) 4-[1-trifluoromethyl-2-(5,6,7,8-tetrahydro-5,5,8,8-tetramethyl-2-naphthalenyl)-1-ethenyl]benzoic acid] | 91 | 15 | 1 |  | 26 | 5 | 0 |  | 205 | 34 | 0 | induce a transactivation mediated by the three receptors | induce a transactivation close to that of TTNPB | 97 | 10.4 | 93.7 | 98.5 |  |  | inhibition at 1 µM ([1]; Homo sapiens, MCF7, 10^-6 M, cells activated by 10^-7 M TPA, range of several experiments): 38 to 46%; inhibition at 0.1 µM ([1]; Homo sapiens, MCF7, 10^-7 M, cells activated by 10^-7 M TPA, range of several experiments, read-out: anti-AP-1 effect, inhibition): 26%; anti-AP-1 effect (in words) ([1]; TPA-activated MTLN cells): exert an inhibitor effect comparable to that of the effect of CB28628; GAL4-RAR RARβ transactivation (Gal4-RARβ): 44%; activity at 1 µM (T-47D cells; Homo sapiens, T47D, 168 h, 10^-6 M, 100% = E2 10^-9 M, 7 days, read-out: growth of T-47D cells): 68 to 78%; GAL4-RAR RARα transactivation (Gal4-RARα): 38%
31.4 ± 16.9 | C/C(=C\c1cc2c(cc1C)C(C)(C)CCC2(C)C)c1ccc(C(=O)O)cc1 [CB71802] |  |  |  |  |  |  |  |  |  |  |  |  |  | 76 | 12.5 | 86.3 | 80.9 | inhibits the increase of these two pulmonary lineages the most strongly |  | inhibition at 1 µM (T-47D cells; Homo sapiens, T47D, 168 h, 1 μM (10^-6 M), 7 days, estradiol 10^-9 M, read-out: percentage inhibition of growth, T-47D): 72%
33 | C/C(=C\c1ccc2c(c1)C(C)(C)CCC2(C)C)c1ccc(C(=O)Nc2nnn[nH]2)cc1 [CB73364] | 74 |  |  |  | 78 |  |  |  | 118 |  |  |  |  | 89 | 0 | 151 | 156 | a stimulation of the cellular increase | exerts an effect comparable to TTNPB | 
 | C/C(=C\c1ccc(C(=O)O)cc1)c1ccc2c(c1)C(C)(C)CCC2(C)C [TTNPB, reference compound] |  |  |  | 26 to 53 |  |  |  | 66 |  |  |  |  |  |  |  |  |  |  | stronger inhibiting effect than the natural ligands (all-trans RA and 9-cis RA) and than LGD1069 | inhibition at 0.1 µM [1, 5]: 29 to 54%

Source: patent US6265423A, “Aromatic polycyclic retinoid-type derivatives, method for preparing same, and use thereof for making pharmaceutical and cosmetic compositions” (priority 1996, dated 2001)
